How the values were obtained:
Assay type in all cases: in vivo
crop plants = experiment: Mitigation of drought and chilling stress on crop plants (summary statement)
[1] = system: Tobacco plants cv. Xanthi-nc; experiment: Tobacco plants drought assay; conditions: for Percent of plants recovered 3 days after re-watering: re-watered after 18 days of water withdrawal
Method: Tobacco plants cv. Xanthi-nc were grown for six weeks at 25° C. and were size matched into groups of four. Each plant group was drench-treated with 10 mL of water containing 0.5% DMSO (control), 0.3 mg, 1.0 mg or 3.0 mg/plant 3′-methyl-(S)-abscisic acid, or 0.3 mg, 1.0 mg or 3.0 mg/plant S-ABA, respectively. The plants were kept in the greenhouse and not watered, simulating drought conditions. After 18 days of water withdrawal, the plants in all treatment groups wilted. At that point, all the plants were watered again. The number of plants that wilted during each day of water withdrawal and the number of plants that recovered following the re-watering were recorded.

[2] = system: Cucumber plants cv. ‘Straight Eight’; experiment: Cucumber seedling chilling; parameters: key to New Growth Rating: 0 = No new growth; 1 = some new growth; 2 = new leaves; conditions: for New Growth Rating / Percent Leaf Area Affected: foliar spray 100 mg/liter, 300 ug/plant, 96 hours at 4° C., rated after 48 hours recovery
Method: In these studies, 3′-methyl-(S)-abscisic acid was compared with (S)-abscisic acid on cucumber seedlings for prevention of chilling damage. Cucumber plants cv. ‘Straight Eight’ were grown for two weeks at 25° C. and were size matched into groups of three plants. Each group was sprayed with water+0.05% non-ionic surfactant (control), 100 ppm 3′-methyl-(S)-abscisic acid and surfactant, or 100 ppm S-ABA and surfactant until wet, respectively. For the spray solutions, 3′-methyl-(S)-abscisic acid was dissolved in 0.5% by volume DMSO in water. Following the foliar treatment, plants were held for 48 hours at room temperature, then subjected to 4° C. for 96 hours, and then returned to 25° C. After the plants had been allowed to recover from the chilling treatments for 48 hours, the plants were rated for percent leaf area affected and new growth.

[3] = system: corn seed of a common inbred parental line; experiment: Corn plant emergence after seed treatment; conditions: for Additional delay in emergence in comparison with S-ABA: 80 μg/seed rate; for Relative potency of S-ABA, dose required to delay the median emergence time by two days: regression; for Delay in Median Emergence Time Compared to Control / Median Time to Emergence: 20.5° C.
Method: Corn seed of a common inbred parental line were treated using standard seed treatment equipment with water (control), 40 μg, 80 μg or 160 μg/seed S-ABA, 10 μg, 20 μg, 40 μg or 80 μg/seed 3′-methyl-(S)-abscisic acid, or 10 μg, 20 μg, 40 μg or 80 μg/seed 3′-propargyl-(S)-abscisic acid. Post treatment, the seeds were planted in 12×3×2″ plastic boxes containing one kilogram of sieved, pre-moistened field soil. Fifty seeds were planted in each box at three centimeter depth and two replicate boxes per treatment at 20.5° C. under constant illumination. Two replications of the experiment were incubated under constant light in a 20.5° C. growth chamber. Emergence counts were recorded almost daily until seedling emergence had ceased (42 days). Daily counts were converted to proportions of the final emergence to estimate the median emergence time for each box.

Row | SMILES | Percent of non-wilted plans on days after drench treatment and drought initiation, Day 8 ([1]; 0.3 mg/plant drench) [%] | Percent of non-wilted plans on days after drench treatment and drought initiation, Day 10 ([1]; 0.3 mg/plant drench) [%] | Percent of non-wilted plans on days after drench treatment and drought initiation, Day 12 ([1]; 0.3 mg/plant drench) [%] | Percent of non-wilted plans on days after drench treatment and drought initiation, Day 14 ([1]; 0.3 mg/plant drench) [%] | Percent of non-wilted plans on days after drench treatment and drought initiation, Day 16 ([1]; 0.3 mg/plant drench) [%] | Percent of non-wilted plans on days after drench treatment and drought initiation, Day 18 ([1]; 0.3 mg/plant drench) [%] | Percent of plants recovered 3 days after re-watering ([1]; 0.3 mg/plant drench) [%] | Percent of non-wilted plans on days after drench treatment and drought initiation, Day 8 ([1]; 1 mg/plant drench) [%] | Percent of non-wilted plans on days after drench treatment and drought initiation, Day 10 ([1]; 1 mg/plant drench) [%] | Percent of non-wilted plans on days after drench treatment and drought initiation, Day 12 ([1]; 1 mg/plant drench) [%] | Percent of non-wilted plans on days after drench treatment and drought initiation, Day 14 ([1]; 1 mg/plant drench) [%] | Percent of non-wilted plans on days after drench treatment and drought initiation, Day 16 ([1]; 1 mg/plant drench) [%] | Percent of non-wilted plans on days after drench treatment and drought initiation, Day 18 ([1]; 1 mg/plant drench) [%] | Percent of plants recovered 3 days after re-watering ([1]; 1 mg/plant drench) [%] | Percent of non-wilted plans on days after drench treatment and drought initiation, Day 8 ([1]; 3 mg/plant drench) [%] | Percent of non-wilted plans on days after drench treatment and drought initiation, Day 10 ([1]; 3 mg/plant drench) [%] | Delay in Median Emergence Time Compared to Control ([3]; seed treatment 40 μg/seed) [days] | Median Time to Emergence ([3]; seed treatment 40 μg/seed) [days] | Delay in Median Emergence Time Compared to Control ([3]; seed treatment 80 μg/seed) [days] | Median Time to Emergence ([3]; seed treatment 80 μg/seed) [days] | also measured
1 | CC1=C(C)[C@](O)(/C=C/C(C)=C\C(=O)O)C(C)(C)CC1=O [3′-methyl-(S)-ABA, (2Z,4E)-5-((S)-1-hydroxy-2,3,6,6-tetramethyl-4-oxocyclohex-2-en-1-yl)-3-methylpenta-2,4-dienoic acid] | 100 | 100 | 83 | 33 | 0 | 0 | 0 | 100 | 100 | 100 | 83 | 67 | 0 | 33 | 100 | 100 | 11.1 | 16.0 | 13.8 | 18.6 | Effectiveness relative to S-ABA when applied to crop plants to mitigate drought and chilling stress (crop plants): from about two to about ten times as effective as S-ABA; Percent of non-wilted plans on days after drench treatment and drought initiation, Day 12 ([1]; 3 mg/plant drench): 100%; Percent of non-wilted plans on days after drench treatment and drought initiation, Day 14 ([1]; 3 mg/plant drench): 100%; Percent of non-wilted plans on days after drench treatment and drought initiation, Day 16 ([1]; 3 mg/plant drench): 83%; Percent of non-wilted plans on days after drench treatment and drought initiation, Day 18 ([1]; 3 mg/plant drench): 0%; Percent of plants recovered 3 days after re-watering ([1]; 3 mg/plant drench): 83%; Percent of plants recovered 3 days after re-watering ([1]; 3 mg/plant drench, listed as 3′-methyl-(S)-abscisic acid): 83%; Drought tolerance compared to the untreated control or the highest amount (3.0 mg) of S-ABA ([1]; lowest amount (0.3 mg)): superior drought tolerance; Mitigating chilling damage compared with S-ABA ([2]; 100 ppm foliar spray, chilling at 4° C.): more effective than S-ABA; New Growth Rating [2]: 2; Percent Leaf Area Affected [2]: 16.67%; Additional delay in emergence in comparison with S-ABA [3]: 5.6 calendar days; Relative potency of S-ABA, dose required to delay the median emergence time by two days [3]: 2.2 times; Delay in Median Emergence Time Compared to Control ([3]; seed treatment 10 μg/seed): 4.9 days; Median Time to Emergence ([3]; seed treatment 10 μg/seed): 9.7 days; Delay in Median Emergence Time Compared to Control ([3]; seed treatment 20 μg/seed): 7.9 days; Median Time to Emergence ([3]; seed treatment 20 μg/seed): 12.7 days
2 | C#CCC1=C(C)[C@](O)(/C=C/C(C)=C\C(=O)O)C(C)(C)CC1=O [3′-propargyl-(S)-ABA, (2Z,4E)-5-((S)-1-hydroxy-2,6,6-trimethyl-4-oxo-3-(prop-2-yn-1-yl)cyclohex-2-en-1-yl)-3-methylpenta-2,4-dienoic acid] | – | – | – | – | – | – | – | – | – | – | – | – | – | – | – | – | 16.2 | 21.0 | 22.4 | 27.3 | Additional delay in emergence in comparison with S-ABA [3]: 14.3 calendar days; Relative potency of S-ABA, dose required to delay the median emergence time by two days [3]: 2.6 times; Delay in Median Emergence Time Compared to Control ([3]; seed treatment 10 μg/seed): 8.6 days; Median Time to Emergence ([3]; seed treatment 10 μg/seed): 13.4 days; Delay in Median Emergence Time Compared to Control ([3]; seed treatment 20 μg/seed): 11.3 days; Median Time to Emergence ([3]; seed treatment 20 μg/seed): 16.2 days
3 | CC1=CC(=O)CC(C)(C)[C@@]1(O)/C=C/C(C)=C/C(=O)O [S-ABA, (S)-abscisic acid] | 100 | 100 | 17 | 0 | 0 | 0 | 0 | 100 | 100 | 50 | 0 | 0 | 0 | 0 | 100 | 100 | 5.6 | 10.5 | 8.2 | 13.0 | Percent of non-wilted plans on days after drench treatment and drought initiation, Day 12 ([1]; 3 mg/plant drench): 67%; Percent of non-wilted plans on days after drench treatment and drought initiation, Day 14 ([1]; 3 mg/plant drench): 0%; Percent of non-wilted plans on days after drench treatment and drought initiation, Day 16 ([1]; 3 mg/plant drench): 0%; Percent of non-wilted plans on days after drench treatment and drought initiation, Day 18 ([1]; 3 mg/plant drench): 0%; Percent of plants recovered 3 days after re-watering ([1]; 3 mg/plant drench): 0%; Plants recovered once they were watered ([1]; all S-ABA doses (0.3, 1.0, 3.0 mg/plant)): none; New Growth Rating [2]: 1; Percent Leaf Area Affected [2]: 33.33%; Delay in Median Emergence Time Compared to Control ([3]; seed treatment 160 μg/seed): 9.7 days; Median Time to Emergence ([3]; seed treatment 160 μg/seed): 14.6 days

From US10314307B2, “(S)-abscisic acid derivatives for improving plant stress tolerance” (Valent BioSciences Corporation, priority 2015, dated 2019)
